Earlier results, collected in patent US11400063B2, “Early administration of low-dose colchicine after myocardial infarction” (INSTITUT DE CARDIOLOGIE DE MONTREAL, priority 2019, dated 2022).
Read-outs that look alike come from different tables or passages of the source.

Test system: patients with stable CAD
Details: cited from earlier work

COc1cc2c(c(OC)c1OC)-c1ccc(OC)c(=O)cc1[C@@H](NC(C)=O)CC2 [Colchicine, colchicine]
Primary composite outcome (cardiovascular mortality, myocardial infarction, ischemic stroke, urgent revascularization), Events N (LoDoCo2, N = 2762, median follow-up 28.6 months): 187 N | Cardiovascular mortality, HR (95% CI) (LoDoCo2, colchicine vs placebo): 0.80 (0.44-1.44) | Ischemic stroke, HR (95% CI) (LoDoCo2, colchicine vs placebo): 0.66 (0.35-1.25) | Myocardial infarction, HR (95% CI) (LoDoCo2, colchicine vs placebo): 0.70 (0.53-0.93) | Primary composite outcome, HR (95% CI) (LoDoCo2, colchicine vs placebo): 0.69 (0.57-0.83) | Urgent coronary revascularization, HR (95% CI) (LoDoCo2, colchicine vs placebo): 0.75 (0.60-0.94) | all-cause mortality, HR (LoDoCo2, colchicine vs placebo): 1.21 | Myocardial infarction, HR (95% CI) (LoDoCo2, colchicine vs placebo, listed as colchicine): 0.70 | Cardiovascular mortality, Events % (LoDoCo2): 0.7% | Cardiovascular mortality, Events N (LoDoCo2): 20 N | Ischemic stroke, Events % (LoDoCo2): 0.6% | Ischemic stroke, Events N (LoDoCo2): 16 N | Myocardial infarction, Events % (LoDoCo2): 3.0% | Myocardial infarction, Events N (LoDoCo2): 83 N | Primary composite outcome, Events % (LoDoCo2): (6.8%) | Urgent coronary revascularization, Events % (LoDoCo2): (4.9%) | Urgent coronary revascularization, Events N (LoDoCo2): 135 N
